Values quoted from earlier work, collected in PMC4474859 (PLoS ONE, 2015).

Experiments:
Impα/Impβ complex = conditions: full length protein vs NLS peptide
Description: (§1) Affinity assays between NLS peptides and Impα proteins have been performed based in indirect affinity measurements, using Surface Plasmon Resonance (SPR), and ITC [19, 38, 55]. Indirect affinity measurements between NLSs and Impα proteins reported dissociation constants in the nM range and permitted the comparison among these molecules. SPR experiments was only able to estimate the peptide-protein affinity in the μM range which was lately confirmed by ITC experiments.

MmImpα = conditions: in words
Description: as §1

Substance	increase in affinity compared to just nucleoplasmin NLS peptide (Impα/Impβ complex) [fold]	binding site on MmImpα (MmImpα)
full length nucleoplasmin protein: full length nucleoplasmin protein binds to Impα/Impβ complex	2	–
GSIIRKWN [hPLSCR4 NLS peptide]	–	binds only the minor site of MmImpα
